Assay results from publication PMC3982560, “Synthesis of fluorescent analogs of relaxin family peptides and their preliminary in vitro and in vivo characterization” (Frontiers in Chemistry, 2013).

Legend:
[1] = target: T1, RXFP2 (Homo sapiens, UniProt Q8WXD0); test: cAMP reporter gene assay (pCRE β-galactosidase); conditions: cell-based assay, HEK-293T RXFP2
T1 construct: expressed in transfected cells; host or cells: HEK-293T (co-transfected with pCRE β-galactosidase reporter)
Experimental: The ability of the Cy5.5-labeled insulin/relaxin family peptide analogs to stimulate cAMP production was evaluated using a cAMP reporter gene assay as described (Scott et al., [2006]). HEK-293T cells co-transfected with either RXFP1 or RXFP2 and a pCRE β-galactosidase reporter plasmid were plated in 96-well plates (Chen et al., [1995]). After 24 h, the co-transfected cells were incubated with increasing concentrations of relaxin analogs in parallel to 10 nM of H2 relaxin or INSL3 for RXFP1- or RXFP2- transfected cells, respectively. The amount of cAMP-driven β-galactosidase expression in each well was assessed with a colormetric assay measuring absorbance at 570 nm on a microplate spectrophotometer. Ligand-induced cAMP stimulation was expressed as a percentage of maximal response of H2 relaxin or INSL3 for RXFP1 and RXFP2 cells, respectively. Each data point was measured in triplicate and each experiment conducted independently at least three separate times. Statistical differences in pEC50 values were analyzed using One-Way ANOVA coupled to the Newman Keul's multiple comparison test for multiple group comparisons in GraphPad Prism 4.

[2] = tested on: central RXFP1 activation (water drinking); test: Drinking (dipsogenic) response after icv infusion; assay type: in vivo; conditions: adult male C57B/6J mice; single 4 μg dose icv in 4 μl aCSF; n = 3–4; observed 30 min
From the text: (§1) Adult male C57B/6J mice (10-weeks old) were deeply anesthetized by inhalation of 4% isoflurane and anaesthesia was maintained with 2% isoflurane administered at 0.2 l/min through a nasal cone. Mice were secured in a stereotaxic frame and an incision made to expose the skull, which was cleaned with 6% hydrogen peroxide. Two 1 mm-diameter holes were drilled in the skull on either side of the sagittal midline, 3 mm posterior and 3 mm lateral to bregma, to allow small screws (3 mm long) to be secured in order to anchor the guide cannula in place. A third hole of 1 mm in diameter was drilled through the skull to allow implantation of a stainless-steel guide cannula (11 mm long, 24 gauge) just above the lateral ventricle at the coordinates relative to bregma: anterior-posterior −0.46 mm; medial-lateral −0.8 mm; dorsal-ventral −1.8 mm. The guide cannula and screws were fixed in place by application of self-curing acrylic dental cement (Vertex-Dental, the Netherlands).
After 5–10 days recovery post-surgery, mice were gently restrained and an injector was inserted through the guide cannula which protruded 0.5 mm into the lateral ventricle. A single 4 μg dose of each peptide (n = 3–4) was delivered in 4 μ l of artificial CSF (aCSF; 147 mM NaCl, 4 mM KCl, 0.85 mM MgCl2, and 2.3 mM CaCl2), over 1 min via a 10 μ l syringe (0.46 mm diameter) mounted on an infusion pump connected to the injector via polyethylene tubing. Following infusion, the injector was left in place for a further 15 s to prevent backflow of the infused peptide up the guide cannula.
Following peptide infusion, mice were placed back in their clear-walled home cages for 30 min with access to water (and food) and filmed through the side of the cage for subsequent assessment of behavior. After 30 min, mice were killed by isoflurane inhalation overdose, decapitated, and brains were removed and “post-fixed” by immersion in chilled 4% PFA solution. […] Sections were viewed and images collected using a confocal laser scanning microscope, using laser light at λ of 633 nm, while light between λ of 650–750 nm was detected.

[3] = tested on: brain tissue; test: Brain distribution of Cy5.5 fluorescence after icv infusion; assay type: in vivo; conditions: mice, 30 min after icv injection of 4 μg
From the text: as §1, with “Netherlands). […]” for “Netherlands).”
Following peptide infusion, mice were placed back in their clear-walled home cages for 30 min with access to water (and food) and filmed through the side of the cage for subsequent assessment of behavior. […] Sections were viewed and images collected using a confocal laser scanning microscope, using laser light at λ of 633 nm, while light between λ of 650–750 nm was detected.

T1 sequence (Q8WXD0 whole entry, species assumed): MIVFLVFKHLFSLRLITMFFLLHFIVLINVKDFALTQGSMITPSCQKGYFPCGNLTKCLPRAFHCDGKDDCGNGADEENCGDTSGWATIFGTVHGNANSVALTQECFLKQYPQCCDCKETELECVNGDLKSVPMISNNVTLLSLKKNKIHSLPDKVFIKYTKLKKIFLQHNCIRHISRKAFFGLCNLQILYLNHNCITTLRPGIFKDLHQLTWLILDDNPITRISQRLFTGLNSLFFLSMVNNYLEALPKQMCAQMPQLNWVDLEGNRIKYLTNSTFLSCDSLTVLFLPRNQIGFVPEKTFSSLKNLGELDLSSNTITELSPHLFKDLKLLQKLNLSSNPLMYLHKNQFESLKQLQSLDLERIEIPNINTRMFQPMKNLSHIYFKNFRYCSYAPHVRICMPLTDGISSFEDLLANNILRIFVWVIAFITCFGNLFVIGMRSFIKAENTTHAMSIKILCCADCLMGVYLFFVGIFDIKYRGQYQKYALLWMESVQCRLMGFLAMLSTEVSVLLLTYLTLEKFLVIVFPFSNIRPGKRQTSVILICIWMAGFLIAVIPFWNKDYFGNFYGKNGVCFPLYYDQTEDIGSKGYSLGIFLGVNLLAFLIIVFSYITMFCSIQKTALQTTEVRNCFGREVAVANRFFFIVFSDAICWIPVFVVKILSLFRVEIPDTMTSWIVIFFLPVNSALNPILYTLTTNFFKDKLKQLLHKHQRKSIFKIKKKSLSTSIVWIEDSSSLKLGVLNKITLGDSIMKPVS

Structure (SMILES)	Activation of RXFP2 (in words) [1]	Drinking behavior after icv infusion (in words) [2]	Distance from the ventricle wall beyond which little or no Cy5.5 fluorescence was seen ([3]; confocal microscopy) [μm]	Distribution of Cy5.5 fluorescence in brain (in words) ([3]; confocal microscopy of 40 μm coronal sections)
CCCC[N+]1=C(C=CC=CC=C2N(CCCCCC(=O)NCCCn3cc(C[C@H](N)C(=O)N[C@@H](CC(=O)O)C(=O)N[C@@H](CO)C(=O)N[C@@H](Cc4c[nH]c5ccccc45)C(=O)N[C@@H](CCSC)C(=O)N[C@@H](CCC(=O)O)C(=O)N[C@@H](CCC(=O)O)C(=O)N[C@H](C(=O)N[C@H](C(=O)N[C@@H](CCCCN)C(=O)N[C@@H](CC(C)C)C(=O)N[C@H]4CSSC[C@@H]5NC(=O)[C@@H](NC(=O)[C@H](CCCCN)NC(=O)[C@H](CC(N)=O)NC(=O)[C@H](C)NC(=O)[C@H](CC(C)C)NC(=O)[C@H](C)NC(=O)[C@H](CO)NC(=O)[C@H](Cc6ccc(O)cc6)NC(=O)[C@H](CC(C)C)NC(=O)[C@@H]6CCC(=O)N6)CSSC[C@H](NC(=O)CNC(=O)[C@H](C(C)C)NC(=O)[C@H](Cc6c[nH]cn6)NC5=O)C(=O)N[C@@H]([C@@H](C)O)C(=O)N[C@@H](CCCCN)C(=O)N[C@@H](CCCNC(=N)N)C(=O)N[C@@H](CO)C(=O)N[C@@H](CC(C)C)C(=O)N[C@@H](C)C(=O)N[C@@H](CCCNC(=N)N)C(=O)N[C@@H](Cc5ccccc5)C(=O)N[C@H](C(=O)O)CSSC[C@@H](C(=O)NCC(=O)N[C@@H](CCSC)C(=O)N[C@@H](CO)C(=O)N[C@H](C(=O)N[C@@H](Cc5c[nH]c6ccccc56)C(=O)N[C@@H](CO)C(=O)O)[C@@H](C)O)NC(=O)[C@H]([C@@H](C)CC)NC(=O)[C@H](C)NC(=O)[C@H]([C@@H](C)CC)NC(=O)[C@H](CCC(N)=O)NC(=O)[C@H](C)NC(=O)[C@H](CCCNC(=N)N)NC(=O)[C@H](C(C)C)NC(=O)[C@H](CC(C)C)NC(=O)[C@H](CCC(=O)O)NC(=O)[C@H](CCCNC(=N)N)NC(=O)CNC4=O)[C@@H](C)CC)C(C)C)nn3)c3ccc4ccccc4c3C2(C)C)C(C)(C)c2c1ccc1ccccc21 [Cy5.5-H2 relaxin]	activated	stimulated a similar increase in drinking behavior	> 300	high levels of Cy5.5 were present within the ventricle wall and brain tissue proximal to the major cerebral ventricles
CCCC[N+]1=C(C=CC=CC=C2N(CCCCCC(=O)NCCCn3cc(C[C@H](N)C(=O)N[C@@H](CC(=O)O)C(=O)N[C@@H](CO)C(=O)N[C@@H](Cc4c[nH]c5ccccc45)C(=O)N[C@@H](CCSC)C(=O)N[C@@H](CCC(=O)O)C(=O)N[C@@H](CCC(=O)O)C(=O)N[C@H](C(=O)N[C@H](C(=O)N[C@@H](CCCCN)C(=O)N[C@@H](CC(C)C)C(=O)N[C@H]4CSSC[C@@H]5NC(=O)[C@@H](NC(=O)[C@H](CCCCN)NC(=O)[C@H](CC(N)=O)NC(=O)[C@H](C)NC(=O)[C@H](CC(C)C)NC(=O)[C@H](C)NC(=O)[C@@H](N)CO)CSSC[C@H](NC(=O)CNC(=O)[C@H](C(C)C)NC(=O)[C@H](Cc6c[nH]cn6)NC5=O)C(=O)N[C@@H]([C@@H](C)O)C(=O)N[C@@H](CCCCN)C(=O)N[C@@H](CCCNC(=N)N)C(=O)N[C@@H](CO)C(=O)N[C@@H](CC(C)C)C(=O)N[C@@H](C)C(=O)N[C@@H](CCCNC(=N)N)C(=O)N[C@@H](C)C(=O)N[C@H](C(=O)O)CSSC[C@@H](C(=O)NCC(=O)N[C@@H](CCSC)C(=O)N[C@@H](CO)C(=O)N[C@H](C(=O)N[C@@H](Cc5c[nH]c6ccccc56)C(=O)N[C@@H](CO)C(=O)O)[C@@H](C)O)NC(=O)[C@H]([C@@H](C)CC)NC(=O)[C@H](C)NC(=O)[C@H]([C@@H](C)CC)NC(=O)[C@H](CCC(N)=O)NC(=O)[C@H](C)NC(=O)[C@H](CCCNC(=N)N)NC(=O)[C@H](C(C)C)NC(=O)[C@H](CC(C)C)NC(=O)[C@H](CCC(=O)O)NC(=O)[C@H](CCCNC(=N)N)NC(=O)CNC4=O)[C@@H](C)CC)C(C)C)nn3)c3ccc4ccccc4c3C2(C)C)C(C)(C)c2c1ccc1ccccc21 [Cy5.5-H2:A(4-24)(F23A)]	–	stimulated a similar increase in drinking behavior	–	–
CCCC[N+]1=C(C=CC=CC=C2N(CCCCCC(=O)NCCCn3cc(C[C@H](N)C(=O)N4CCC[C@H]4C(=O)N[C@H](C(=O)N4CCC[C@H]4C(=O)N[C@@H](CCC(=O)O)C(=O)N[C@@H](CCSC)C(=O)N[C@@H](CCCNC(=N)N)C(=O)N[C@@H](CCC(=O)O)C(=O)N[C@@H](CCCCN)C(=O)N[C@@H](CC(C)C)C(=O)N[C@H]4CSSC[C@@H]5NC(=O)[C@@H](NC(=O)[C@H](Cc6ccc(O)cc6)NC(=O)[C@H](CCCNC(=N)N)NC(=O)[C@H](C)NC(=O)[C@@H]6CCCN6C(=O)[C@H](CC(N)=O)NC(=O)[C@@H](NC(=O)[C@H](C)NC(=O)[C@H](C)NC(=O)[C@H](C)N)[C@@H](C)O)CSSC[C@H](NC(=O)CNC(=O)[C@H](CO)NC(=O)[C@H](CC(C)C)NC5=O)C(=O)N[C@@H]([C@@H](C)O)C(=O)N[C@@H](CCC(N)=O)C(=O)N[C@@H](CCC(N)=O)C(=O)N[C@@H](CC(=O)O)C(=O)N[C@@H](CC(C)C)C(=O)N[C@@H](CC(C)C)C(=O)N[C@@H]([C@@H](C)O)C(=O)N[C@@H](CC(C)C)C(=O)N[C@H](C(=O)N5CCC[C@H]5C(=O)N[C@@H](Cc5ccc(O)cc5)C(=O)O)CSSC[C@@H](C(=O)NCC(=O)NCC(=O)N5CCC[C@H]5C(=O)N[C@@H](CCCNC(=N)N)C(=O)N[C@@H](Cc5c[nH]c6ccccc56)C(=O)N[C@@H](CO)C(=O)N[C@H](C(=O)N[C@@H](CCC(=O)O)C(=O)N[C@@H](C)C(=O)O)[C@@H](C)O)NC(=O)[C@H](C(C)C)NC(=O)[C@H](CCCNC(=N)N)NC(=O)[C@H](C(C)C)NC(=O)[C@H](CC(C)C)NC(=O)[C@H](C)NC(=O)[C@H](CCCNC(=N)N)NC(=O)[C@H](C(C)C)NC(=O)[C@H](Cc5ccccc5)NC(=O)[C@H](Cc5c[nH]cn5)NC(=O)[C@H](Cc5c[nH]cn5)NC(=O)CNC4=O)[C@@H](C)O)nn3)c3ccc4ccccc4c3C2(C)C)C(C)(C)c2c1ccc1ccccc21 [Cy5.5-INSL3]	–	did not initiate a drinking response	–	–
